# Results as given in patent publication US8471004B2, “Bicyclic compounds” (Hoffman-La Roche Inc., priority 2009, dated 2013).
# Target: T1, human chemokine receptor 2 isoform B (Homo sapiens, UniProt P41597)
# T1 construct: host or cells: CHOK1-CCR2B-A5 (CHO-K1)
# T1 sequence (P41597 1-360 isoform P41597-2): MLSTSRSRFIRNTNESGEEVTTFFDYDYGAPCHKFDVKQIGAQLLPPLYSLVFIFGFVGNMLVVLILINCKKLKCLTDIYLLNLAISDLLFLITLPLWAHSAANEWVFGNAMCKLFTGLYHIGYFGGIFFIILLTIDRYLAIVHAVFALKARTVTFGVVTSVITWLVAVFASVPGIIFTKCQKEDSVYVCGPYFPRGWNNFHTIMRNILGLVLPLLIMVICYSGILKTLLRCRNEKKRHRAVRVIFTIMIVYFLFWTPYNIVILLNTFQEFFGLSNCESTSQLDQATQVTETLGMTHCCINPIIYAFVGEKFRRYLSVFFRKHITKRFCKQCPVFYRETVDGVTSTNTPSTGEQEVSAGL
# Experiment: Calcium mobilization assay (CHOK1-CCR2B-A5 cells, FLIPR, MCP-1 stimulated)
# Format: cell-based
# Settings: Ca mobilisation assay for CCR2, antagonist activity, 50% inhibition of specific calcium increases after 20 nM MCP-1
# Summary of the method: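 Antagonism read as IC50 against 20 nM MCP-1-evoked calcium rise (peak minus baseline Fluo-4 signal, FLIPR) in CCR2B-overexpressing CHO-K1 cells. Compounds were preincubated 20-30 min at 30 °C, with agonist activity recorded for 80 s on addition.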
row,Compound,IC50
1,"C[C@H]1C(=O)N2[C@@H](CCN3CCS(=O)(=O)CC3)COC[C@H]2CN1C(=O)Nc1ccc(Cl)c(Cl)c1 [Example 58, (4S,7S,9aR)-4-[2-(1,1-Dioxo-thiomorpholin-4-yl)-ethyl]-7-methyl-6-oxo-hexahydro-pyrazino[2,1-c][1,4]oxazine-8-carboxylic acid (3,4-dichloro-phenyl)-amide]",414 nM
2,"C[C@H]1C(=O)N2[C@@H](CCN3CCS(=O)(=O)CC3)COC[C@H]2CN1C(=O)Nc1ccc(C(F)(F)F)c(Cl)c1 [Example 59, (4S,7S,9aR)-4-[2-(1,1-Dioxo-6-thiomorpholin-4-yl)-ethyl]-7-methyl-6-oxo-hexahydro-pyrazino[2,1-c][1,4]oxazine-8-carboxylic acid (3-chloro-4-trifluoromethyl-phenyl)-amide]",189 nM
3,"C[C@H]1C(=O)N2[C@@H](CCCN3CCC4(CC4)C(F)(F)C3)COC[C@H]2CN1C(=O)Nc1ccc(Cl)c(Cl)c1 [Example 60, (4S,7S,9aR)—N-(3,4-dichlorophenyl)-4-(3-(4,4-difluoro-6-azaspiro[2.5]octan-6-yl)propyl)-7-methyl-6-oxohexahydropyrazino[2,1-c][1,4]oxazine-8(1H)-carboxamide]",48.2 nM
4,"C[C@H]1C(=O)N2[C@@H](CCCN3CCC4(CC4)C(F)(F)C3)COC[C@H]2CN1C(=O)Nc1ccc(C(F)(F)F)c(Cl)c1 [Example 61, (4S,7S,9aR)—N-(3-chloro-4-(trifluoromethyl)phenyl)-4-(3-(4,4-difluoro-6-azaspiro[2.5]octan-6-yl)propyl)-7-methyl-6-oxohexahydropyrazino[2,1-c][1,4]oxazine-8(1H)-carboxamide]",34.1 nM
5,"C[C@H]1C(=O)N2[C@@H](CCC(=O)N3CCC4(CC4)[C@H](O)C3)CCC[C@H]2CN1C(=O)/C=C/c1ccc(F)c(Cl)c1 [Example 62, (3S,6R,9aS)-2-[(E)-3-(3-Chloro-4-fluoro-phenyl)-acryloyl]-6-[3-((S)-4-hydroxy-6-aza-spiro[2.5]oct-6-yl)-3-oxo-propyl]-3-methyl-octahydro-pyrido[1,2-a]pyrazin-4-one]",220 nM
6,"C[C@H]1C(=O)N2[C@@H](CCC(=O)N3CCC4(CC4)[C@H](O)C3)CCC[C@H]2CN1C(=O)Nc1ccc(Cl)c(Cl)c1 [Example 63, (3S,6R,9aS)-6-[3-((S)-4-Hydroxy-6-aza-spiro[2.5]oct-6-yl)-3-oxo-propyl]-3-methyl-4-oxo-octahydro-pyrido[1,2-a]pyrazine-2-carboxylic acid (3,4-dichloro-phenyl)-amide]",10.8 nM
7,"C[C@H]1C(=O)N2[C@@H](CCC(=O)N3CCC4(CC4)[C@H](O)C3)CCC[C@H]2CN1C(=O)Nc1ccc(C(F)(F)F)c(Cl)c1 [Example 64, (3S,6R,9aS)-6-[3-((S)-4-Hydroxy-6-aza-spiro[2.5]oct-6-yl)-3-oxo-propyl]-3-methyl-4-oxo-octahydro-pyrido[1,2-a]pyrazine-2-carboxylic acid (3-chloro-4-trifluoromethyl-phenyl)-amide]",14.3 nM
8,"C[C@H]1C(=O)N2[C@@H](CCN3CCC4(CC4)[C@H](O)C3)CCC[C@H]2CN1C(=O)Nc1ccc(Cl)c(Cl)c1 [Example 65, (3S,6R,9aS)-6-[2-((S)-4-Hydroxy-6-aza-spiro[2.5]oct-6-yl)-ethyl]-3-methyl-4-oxo-octahydro-pyrido[1,2-a]pyrazine-2-carboxylic acid (3,4-dichloro-phenyl)-amide]",2.2 nM
9,"C[C@H]1C(=O)N2[C@@H](CCN3CCC4(CC4)[C@H](O)C3)CCC[C@H]2CN1C(=O)Nc1cccc(Cl)c1 [Example 66, (3S,6R,9aS)-6-[2-((S)-4-Hydroxy-6-aza-spiro[2.5]oct-6-yl)-ethyl]-3-methyl-4-oxo-octahydro-pyrido[1,2-a]pyrazine-2-carboxylic acid (3-chloro-phenyl)-amide]",3 nM
10,"C[C@H]1C(=O)N2[C@@H](CCN3CCC4(CC4)[C@H](O)C3)CCC[C@H]2CN1C(=O)Nc1cccc(F)c1 [Example 67, (3S,6R,9aS)-6-[2-((S)-4-Hydroxy-6-aza-spiro[2.5]oct-6-yl)-ethyl]-3-methyl-4-oxo-octahydro-pyrido[1,2-a]pyrazine-2-carboxylic acid (3-fluoro-phenyl)-amide]",7.9 nM
